Assays:
[1] = test system: normal human liver cells (QSG7701); assay: Cytotoxicity on normal cells, QSG7701; type: cell-based; conditions: MTT, 48 h, read-out: Anti-proliferative activity IC50, QSG7701 (normal cells)
Description: In order to determine the anti-angiogenic effect of these multi-target inhibitors, we evaluated their effect on HECs (EA.hy926) viability using cell counting kit-8 (CCK-8) method.
(§1) These RTKs play critical roles in the proliferation of various cancers. Therefore, RTKs inhibition generally translate well into anti-proliferation activity.
(§2) Exponentially growing cells were harvested and plated in 96-well plates at a concentration of 1×10^4 cells/well per well, and then were incubated at 37°C for 24 h. […] Subsequently, 22 μL fresh MTT (5 mg/mL) was added to each well and incubated at 37°C for 4 h. […] DMSO was added to each well after supernatant was discarded. Absorbance values were determined by a microplate reader (Bio-Rad Instruments) at 490 nm. The IC50 values were calculated according to inhibition ratios.

VEGFR-1 = VEGFR-1 (Homo sapiens, UniProt P17948); assay: Kinase-Glo Plus RTK selectivity assay, VEGFR-1; type: biochemical; conditions: 10 μM ATP
Description: (§3) A 50 μL reaction mixture contains 40 mM Tris, pH 7.4, 10 mM MgCl2, 0.1 mg/ml BSA, 1 mM DTT, 10 μM ATP, kinase and substrate (0.2 mg/mL Poly(Glu, Tyr)/10 μM ATP). The test compounds were diluted in 10% DMSO and 5 μL of the dilution was added to a 50 μL reaction so that the final concentration of DMSO is 1% in all of reactions. The assay was performed using Kinase-Glo Plus luminescence kinase assay kit. It measures kinase activity by quantitating the amount of ATP remaining in solution following a kinase reaction. The luminescent signal from the assay is correlated with the amount of ATP present and is inversely correlated with the amount of kinase activity. The IC50 values were calculated using nonlinear regression with normalized dose−response fit using Prism GraphPad software.

EGFR = EGFR (Homo sapiens, UniProt P00533); assay: Kinase-Glo Plus RTK selectivity assay, EGFR; type: biochemical; conditions: 10 μM ATP
Description: as §3

B-Raf = B-Raf (Homo sapiens, UniProt P15056); assay: Kinase-Glo Plus RTK selectivity assay, B-Raf; type: biochemical; conditions: 10 μM ATP
Description: as §3

MCF-7 xenograft = assay: In vivo MCF-7 xenograft mice model; conditions: ig; for Final body weight / Tumor growth inhibition / Final tumor weight: 21 days; for Final tumor weight: control 0.848±0.5; for Initial body weight: before treatment
Description: Six-week old female BALB/c mice were purchased from Shanghai Laboratory Animal center of the Chinese Academy of Sciences and housed under aseptic and ventilated condition. The mice were inoculated by subcutaneous injection with MCF-7 cancer cells suspended in 5% saline. Tumor volume and weight were measured on alternate days. Body weights were monitored as an indicator of toxicity. […] Treatment started from the next day and continued for 21 days. All mice were killed at the end of the experiment, and subcutaneous tumors were removed and weighted.

EphB4 = target: T1, EphB4 (Homo sapiens, UniProt P54760); assay: ADP-Glo in vitro RTK inhibition assay, EphB4; type: biochemical; conditions: ATP 50 μM
T1 sequence (P54760 16-987): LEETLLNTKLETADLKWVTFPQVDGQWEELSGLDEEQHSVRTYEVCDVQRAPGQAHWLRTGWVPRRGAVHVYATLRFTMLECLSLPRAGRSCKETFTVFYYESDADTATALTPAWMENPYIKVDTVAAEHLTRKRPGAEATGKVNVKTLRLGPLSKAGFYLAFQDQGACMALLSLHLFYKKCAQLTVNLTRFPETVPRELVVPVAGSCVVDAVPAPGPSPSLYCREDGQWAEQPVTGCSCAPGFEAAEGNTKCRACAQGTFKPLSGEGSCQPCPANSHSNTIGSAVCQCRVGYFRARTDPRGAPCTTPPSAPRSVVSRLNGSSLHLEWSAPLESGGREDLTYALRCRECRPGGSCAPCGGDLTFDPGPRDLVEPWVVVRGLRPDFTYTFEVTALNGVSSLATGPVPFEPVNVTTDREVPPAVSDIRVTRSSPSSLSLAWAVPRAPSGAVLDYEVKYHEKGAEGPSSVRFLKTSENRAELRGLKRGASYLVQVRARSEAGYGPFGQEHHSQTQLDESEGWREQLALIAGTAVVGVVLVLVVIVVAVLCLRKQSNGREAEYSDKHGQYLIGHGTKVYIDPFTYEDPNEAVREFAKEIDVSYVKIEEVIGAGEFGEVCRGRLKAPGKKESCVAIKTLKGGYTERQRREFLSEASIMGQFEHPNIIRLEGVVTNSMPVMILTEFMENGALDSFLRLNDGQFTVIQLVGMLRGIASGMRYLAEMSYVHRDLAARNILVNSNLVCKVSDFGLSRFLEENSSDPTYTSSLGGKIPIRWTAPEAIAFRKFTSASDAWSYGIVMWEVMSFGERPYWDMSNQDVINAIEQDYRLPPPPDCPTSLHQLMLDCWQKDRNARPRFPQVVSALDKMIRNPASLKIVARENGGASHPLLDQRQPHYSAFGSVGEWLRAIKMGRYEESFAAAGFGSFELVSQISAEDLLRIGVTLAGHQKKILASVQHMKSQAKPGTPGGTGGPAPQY
Description: In order to validate the direct effect of title compounds on VEGFR-2, Tie-2, and EphB4 kinases, we performed in vitro assay using the ADP-Glo Kinase Assay Kit (Promega, Wisconsin, USA).
The kinase assay was performed in a reaction mixture of final volume of 10 μL. […] The plate was incubated at 30°C for 1 h. After the plate was cooled at room temperature for 5 min, 5 μL of ADP-Glo reagent was added into each well to stop the reaction and consume the remaining […] within 40 min. At the end, 10 μL of kinase detection reagent was added into the well and incubated for 30 min to produce a luminescence signal. […] The assay plate was incubated at 30°C for 4 h. After the plate was cooled at room temperature for 5 min, 5 μL of ADP-Glo reagent was added into each well to stop the reaction and consume the remaining […] within 1 h. At the end, 10 μL of kinase detection reagent was added into each well and incubated for 30 min to produce a luminescence signal. The luminescence was read by VICTOR-X multi-label plate reader.

[2] = test system: human hepatic cancer cell lines (7721); assay: Anti-proliferative MTT assay, 7721; type: cell-based; conditions: 48 h
Description: as §1, §2

EA.hy926 cells = assay: Apoptosis detection assay (annexin V-FITC/PI flow cytometry); type: cell-based, human; conditions: 48 h, negative control 10.35%
Description: A substantial and dose-dependent proapoptotic activity in HECs at various concentrations for 48 h was observed. The apoptotic EA.hy926 cells (10.35%) of negative control group were depicted in Figure 3A.
The cells were then harvested by trypsinization and washed twice with cold PBS. After centrifugation and removal of the supernatants, EA.hy926 cells were re-suspended in 400 μL of 1×binding buffer which was then added to 5 μL of annexin V-FITC and incubated at room temperature for 15 min. After adding 10 μL of PI the cells were incubated at room temperature for another 15 min in the dark. The stained cells were analyzed by a flow cytometer (BD Accuri C6).

Chain of EGFR (P00533 25-1210, species assumed): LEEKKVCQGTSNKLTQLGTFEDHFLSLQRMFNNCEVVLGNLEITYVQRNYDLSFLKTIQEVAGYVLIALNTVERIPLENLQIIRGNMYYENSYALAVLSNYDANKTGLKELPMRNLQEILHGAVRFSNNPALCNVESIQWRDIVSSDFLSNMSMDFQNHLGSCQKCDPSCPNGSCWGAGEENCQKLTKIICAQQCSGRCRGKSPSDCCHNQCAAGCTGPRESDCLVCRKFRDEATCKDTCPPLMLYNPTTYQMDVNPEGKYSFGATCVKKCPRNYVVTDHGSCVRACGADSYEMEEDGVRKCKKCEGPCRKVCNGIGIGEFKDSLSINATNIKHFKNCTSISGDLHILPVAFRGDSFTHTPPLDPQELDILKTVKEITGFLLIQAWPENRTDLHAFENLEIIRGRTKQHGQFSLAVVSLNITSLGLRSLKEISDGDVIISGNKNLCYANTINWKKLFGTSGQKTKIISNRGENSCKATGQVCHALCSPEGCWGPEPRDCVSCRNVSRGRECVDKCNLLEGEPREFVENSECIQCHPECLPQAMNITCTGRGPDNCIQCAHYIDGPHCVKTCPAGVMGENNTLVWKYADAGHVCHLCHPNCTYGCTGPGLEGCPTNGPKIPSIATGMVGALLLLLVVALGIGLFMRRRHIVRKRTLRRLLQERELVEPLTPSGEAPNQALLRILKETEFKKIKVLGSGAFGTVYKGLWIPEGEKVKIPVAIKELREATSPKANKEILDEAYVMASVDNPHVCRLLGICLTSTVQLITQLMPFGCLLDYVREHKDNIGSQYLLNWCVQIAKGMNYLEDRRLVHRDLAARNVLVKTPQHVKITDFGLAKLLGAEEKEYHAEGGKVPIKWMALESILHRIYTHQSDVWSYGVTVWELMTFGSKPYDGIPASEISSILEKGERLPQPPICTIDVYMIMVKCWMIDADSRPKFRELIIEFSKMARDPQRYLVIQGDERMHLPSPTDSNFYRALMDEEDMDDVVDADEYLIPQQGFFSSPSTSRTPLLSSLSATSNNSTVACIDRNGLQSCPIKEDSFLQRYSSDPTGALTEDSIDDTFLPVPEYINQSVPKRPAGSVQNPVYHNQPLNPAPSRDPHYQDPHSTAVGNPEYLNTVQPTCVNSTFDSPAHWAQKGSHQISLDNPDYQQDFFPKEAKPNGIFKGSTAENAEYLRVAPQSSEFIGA
Chain of VEGFR-1 (P17948 27-1338, species assumed): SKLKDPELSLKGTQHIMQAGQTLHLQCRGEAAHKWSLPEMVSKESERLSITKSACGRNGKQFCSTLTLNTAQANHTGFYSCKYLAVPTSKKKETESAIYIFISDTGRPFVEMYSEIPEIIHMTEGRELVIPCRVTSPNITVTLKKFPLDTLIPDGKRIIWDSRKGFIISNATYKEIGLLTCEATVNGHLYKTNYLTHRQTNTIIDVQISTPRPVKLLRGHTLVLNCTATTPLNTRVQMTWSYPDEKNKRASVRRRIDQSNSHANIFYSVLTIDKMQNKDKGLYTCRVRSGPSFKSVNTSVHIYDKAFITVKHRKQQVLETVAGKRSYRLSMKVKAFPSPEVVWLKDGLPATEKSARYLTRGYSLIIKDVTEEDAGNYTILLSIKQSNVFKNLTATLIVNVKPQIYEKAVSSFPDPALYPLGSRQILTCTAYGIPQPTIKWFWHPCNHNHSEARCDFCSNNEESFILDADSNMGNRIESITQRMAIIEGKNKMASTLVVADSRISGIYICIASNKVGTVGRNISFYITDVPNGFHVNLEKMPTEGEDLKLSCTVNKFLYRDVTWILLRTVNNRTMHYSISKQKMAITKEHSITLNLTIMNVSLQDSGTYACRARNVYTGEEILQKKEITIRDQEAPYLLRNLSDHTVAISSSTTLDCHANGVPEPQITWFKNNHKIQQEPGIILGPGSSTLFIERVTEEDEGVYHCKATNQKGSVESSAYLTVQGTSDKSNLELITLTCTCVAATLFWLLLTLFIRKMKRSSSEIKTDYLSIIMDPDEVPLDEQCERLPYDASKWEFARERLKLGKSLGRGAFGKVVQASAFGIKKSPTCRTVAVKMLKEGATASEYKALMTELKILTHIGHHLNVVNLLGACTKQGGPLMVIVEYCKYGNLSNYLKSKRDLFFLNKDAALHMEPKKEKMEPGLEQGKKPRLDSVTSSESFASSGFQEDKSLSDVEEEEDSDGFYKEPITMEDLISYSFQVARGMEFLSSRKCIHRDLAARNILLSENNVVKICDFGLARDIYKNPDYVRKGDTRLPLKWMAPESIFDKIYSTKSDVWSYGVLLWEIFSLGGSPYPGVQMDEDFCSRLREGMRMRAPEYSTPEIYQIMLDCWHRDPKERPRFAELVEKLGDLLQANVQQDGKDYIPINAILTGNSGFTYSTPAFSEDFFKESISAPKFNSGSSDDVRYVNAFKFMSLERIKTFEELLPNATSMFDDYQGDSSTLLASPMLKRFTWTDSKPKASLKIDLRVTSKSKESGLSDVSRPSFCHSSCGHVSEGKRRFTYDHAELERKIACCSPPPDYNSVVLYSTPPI
Chain of B-Raf (P15056 whole entry, species assumed): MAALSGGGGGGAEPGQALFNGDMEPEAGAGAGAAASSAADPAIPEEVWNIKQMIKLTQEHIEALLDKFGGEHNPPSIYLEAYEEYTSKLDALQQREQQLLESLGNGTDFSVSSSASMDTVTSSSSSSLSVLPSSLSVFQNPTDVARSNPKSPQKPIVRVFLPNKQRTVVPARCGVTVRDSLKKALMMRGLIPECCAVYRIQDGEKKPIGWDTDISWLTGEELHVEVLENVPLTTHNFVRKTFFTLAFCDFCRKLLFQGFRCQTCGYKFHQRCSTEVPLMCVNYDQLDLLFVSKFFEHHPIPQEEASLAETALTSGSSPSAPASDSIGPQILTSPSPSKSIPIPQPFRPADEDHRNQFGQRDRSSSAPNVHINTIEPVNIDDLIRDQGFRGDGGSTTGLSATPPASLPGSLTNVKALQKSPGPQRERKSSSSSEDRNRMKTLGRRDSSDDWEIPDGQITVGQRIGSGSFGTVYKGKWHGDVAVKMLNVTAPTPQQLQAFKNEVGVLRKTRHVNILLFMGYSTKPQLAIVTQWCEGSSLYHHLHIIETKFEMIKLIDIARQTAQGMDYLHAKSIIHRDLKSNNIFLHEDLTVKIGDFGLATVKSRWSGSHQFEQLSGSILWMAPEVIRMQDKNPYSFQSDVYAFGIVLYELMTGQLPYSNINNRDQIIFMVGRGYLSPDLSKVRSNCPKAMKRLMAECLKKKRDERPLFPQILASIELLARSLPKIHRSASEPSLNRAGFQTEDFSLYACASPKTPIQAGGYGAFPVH

For O=C(Nc1ccc(-c2ccc3c(=O)[nH]cnc3c2)cc1)Nc1ccc(F)c(F)c1 [QDAU5, 1-(3,4-difluorophenyl)-3-(4-(4-oxo-3,4-dihydroquinazolin-7-yl)phenyl)urea], the IC50 [1] was greater than 100 µM, the IC50 (VEGFR-1) was 0.192 µM and the IC50 (EGFR) was 0.0988 µM. The IC50 (B-Raf) was greater than 0.5 µM, the Final body weight (MCF-7 xenograft; 20 mg/kg daily) was 17.4 ± 1.0 g and the Tumor growth inhibition (MCF-7 xenograft; 20 mg/kg daily) was 7.2%. The Final tumor weight (MCF-7 xenograft; 20 mg/kg daily) was 0.787 ± 0.7 g, the Initial body weight (MCF-7 xenograft; 20 mg/kg) was 18.7 ± 0.8 g and the Final body weight (MCF-7 xenograft; 40 mg/kg daily) was 18.9 ± 1.2 g. For the same compound, the Tumor growth inhibition (MCF-7 xenograft; 40 mg/kg daily, 40 mg/kg) was 24%, the Final tumor weight (MCF-7 xenograft; 40 mg/kg daily) was 0.642 ± 0.8 g and the Initial body weight (MCF-7 xenograft; 40 mg/kg) was 18.4 ± 0.6 g. For the same compound, the Final body weight (MCF-7 xenograft; 80 mg/kg daily) was 16.1 ± 1.0 g, the Tumor growth inhibition (MCF-7 xenograft; 80 mg/kg daily, 80 mg/kg) was 47% and the Final tumor weight (MCF-7 xenograft; 80 mg/kg daily) was 0.449 ± 0.9 g. For the same compound, the Initial body weight (MCF-7 xenograft; 80 mg/kg) was 18.3 ± 0.7 g, the IC50 (EphB4) was 0.00321 µM and the IC50 [2] was 58.7 µM. For the same compound, the “percentage of early apoptotic cells” value (EA.hy926 cells; EA.hy926, 5 nM) was 19.55%, the “percentage of early apoptotic cells” value (EA.hy926 cells; EA.hy926, 20 nM) was 28.35% and the “percentage of early apoptotic cells” value (EA.hy926 cells; EA.hy926, 40 nM) was 31.43%.

From PMC5739597, “Discovery and evaluation of triple inhibitors of VEGFR-2, TIE-2 and EphB4 as anti-angiogenic and anti-cancer agents” (Oncotarget, 2017)
